“And” between values parts separate entries of the source, which are not always exact repeats. Identical values can stand only once.
How the values were obtained:
Assay type in all cases: biochemical, L. rhizosphaerae NEAU-A2
KnmB2 [1] = assay: Hydrogen peroxide formation assay of KnmB2 and variants
Method: (§1) Hydrogen peroxide formation assay and NADPH oxidation
(§2) The hydrogen peroxide formed from KnmB1, KnmB2 and their variants were measured using the Hydrogen Peroxide Assay Kit (Beyotime Industrial Co. Ltd, Shanghai, China)4-5. 5–100 µL of enzyme reaction mixture was added to 100 µL of working reagent (S0038-1). The mixture was incubated for 30 min at 25 °C, at which time the absorbance at 560 nm was measured by NanoDrop 2000c (Fisher Scientific). […]
(§3) Spectral data for new compounds […]
Supplementary Figure 131. H2O2 generation and NADPH oxidation for KnmB2, KnmB1 and their variants. (a) Hydrogen peroxide formation of KnmB2 and variants. […]
(1 picture or pasted object on this page, not shown here) […]
(§4) H2O2 generation for KnmB2 and variants in the presence 24 or 32. Reaction conditions (h-j) for KnmB2 and their variants: 50 mM Tris-HCl buffer (pH 7.5), 0.15 mM NADPH, 2 μM KnmB2 or variants, or 0.1 mM substrate 24/32. Values are the means ± SD of n = 3 independent experiments, except for KnmB2+24 (T = 40 min), KnmB2-N219D+24 (T = 4 min), KnmB2-Y215F+24 (T= 1 min and 3 min) in i and j, and KnmB2+32 (T= 8 min) in j (n = 2). Source data are provided as a Source Data file. […]

KnmB1 = assay: NADPH oxidation of KnmB1 and variants (340 nm); settings: KnmB1 + compound
Method: Hydrogen peroxide formation assay and NADPH oxidation […]
(§5) NADPH detection was carried out in the cuvette by NanoDrop 2000c (Fisher Scientific). NADPH signal at 340 nm was monitored in time using 6220 M–1 cm–1 as […]
as §3
Reaction conditions: 50 mM Tris-HCl buffer (pH 7.5), 0.15 mM NADPH, and 2 μM KnmB1 or KnmB2. (e) NADPH oxidation of KnmB1 and variants. (f) NADPH oxidation of KnmB1 in the presence 24/32/36. (g) NADPH oxidation of KnmB1 and variants in the presence 24. Reaction conditions (e-g) for KnmB1 and their variants: 50 mM Tris-HCl buffer (pH 7.5), 0.15 mM NADPH, and 6 μM KnmB1 or variants, or 0.1 mM substrate 24/32/36. […]
2 μM KnmB2 or variants, or 0.1 mM substrate 24/32. […]
Source data are provided as a Source Data file. […]

KnmB2 [2] = assay: NADPH oxidation of KnmB2 and variants (340 nm)
Method: as §1
as §2, with “Scientific). The level of H2O2 was calculated according to a standard concentration curve from standard” for “Scientific).”
as §5, §3
Reaction conditions: 50 mM Tris-HCl buffer (pH 7.5),
0.15 mM NADPH, and 2 μM KnmB1 or KnmB2. […]
as §4, with “μM KnmB1 or variants, or 0.1 mM substrate 24/32/36. (h) NADPH oxidation of KnmB2 and variants. (i) NADPH oxidation of KnmB2 and variants in the presence 24 or 32. (j) H2O2” for “H2O2”

COc1cc(C(N)=O)nc(-c2csc(CCCCC(C)C)n2)c1 [Compound 32]
hydrogen peroxide formation of KnmB2 (absorbance UV λ=560 nm), average value (KnmB2 [1]; Fig. S131a, 1 mM NADPH, 16 μM KnmB2, 0.1 mM compound, 30 °C, 3 h, average of 3): 0.3257
H2O2 generation, average value (KnmB2 [1]; KnmB2+32, Time 0): 0.0000 µM
H2O2 generation, average value (KnmB2 [1]; KnmB2+32, Time 1): 27.0071 µM
H2O2 generation, average value (KnmB2 [1]; KnmB2+32, Time 2): 45.8172 µM
H2O2 generation, average value (KnmB2 [1]; KnmB2+32, Time 3): 50.8645 µM
H2O2 generation, average value (KnmB2 [1]; KnmB2+32, Time 4): 59.9799 µM
H2O2 generation, average value (KnmB2 [1]; KnmB2+32, Time 5): 63.9929 µM
H2O2 generation, average value (KnmB2 [1]; KnmB2+32, Time 8): 70.1572 µM
H2O2 generation, average value (KnmB2 [1]; KnmB2+32, Time 10): 68.2817 µM
H2O2 generation, average value (KnmB2 [1]; KnmB2+32, Time 15): 68.3920 µM
H2O2 generation, average value (KnmB2 [1]; KnmB2+32, Time 20): 65.9649 µM
H2O2 generation, average value (KnmB2 [1]; KnmB2+32, Time 30): 69.8125 µM
H2O2 generation, average value (KnmB2 [1]; KnmB2+32, Time 60): 64.9169 µM
NADPH oxidation of KnmB1 in the presence of compound (replicates 1, 2, 3) (KnmB1; Time 0): 0.0000 µM
NADPH oxidation of KnmB1 in the presence of compound, average value (KnmB1; Time 0): 0.0000 µM
NADPH oxidation of KnmB1 in the presence of compound (replicates 1, 2, 3) (KnmB1; Time 1): 1.5273 µM and 2.1061 µM and 2.0418 µM
NADPH oxidation of KnmB1 in the presence of compound, average value (KnmB1; Time 1): 1.8918 µM
NADPH oxidation of KnmB1 in the presence of compound (replicates 1, 2, 3) (KnmB1; Time 2): 1.8328 µM and 3.1029 µM and 1.2701 µM
NADPH oxidation of KnmB1 in the presence of compound, average value (KnmB1; Time 2): 2.0686 µM
NADPH oxidation of KnmB1 in the presence of compound (replicates 1, 2, 3) (KnmB1; Time 3): 2.5241 µM and 3.7621 µM and 2.2026 µM
NADPH oxidation of KnmB1 in the presence of compound, average value (KnmB1; Time 3): 2.8296 µM
NADPH oxidation of KnmB1 in the presence of compound (replicates 1, 2, 3) (KnmB1; Time 4): 3.7781 µM and 5.3698 µM and 2.4759 µM
NADPH oxidation of KnmB1 in the presence of compound, average value (KnmB1; Time 4): 3.8746 µM
NADPH oxidation of KnmB1 in the presence of compound (replicates 1, 2, 3) (KnmB1; Time 5): 4.0032 µM and 5.5627 µM and 2.3955 µM
NADPH oxidation of KnmB1 in the presence of compound, average value (KnmB1; Time 5): 3.9871 µM
NADPH oxidation of KnmB1 in the presence of compound (replicates 1, 2, 3) (KnmB1; Time 8): 4.4212 µM and 7.7974 µM and 3.6978 µM
NADPH oxidation of KnmB1 in the presence of compound, average value (KnmB1; Time 8): 5.3055 µM
NADPH oxidation of KnmB1 in the presence of compound (replicates 1, 2, 3) (KnmB1; Time 10): 5.8360 µM and 8.6174 µM and 5.4019 µM
NADPH oxidation of KnmB1 in the presence of compound, average value (KnmB1; Time 10): 6.6184 µM
NADPH oxidation of KnmB1 in the presence of compound (replicates 1, 2, 3) (KnmB1; Time 15): 7.9100 µM and 11.8971 µM and 10.3055 µM
NADPH oxidation of KnmB1 in the presence of compound, average value (KnmB1; Time 15): 10.0375 µM
NADPH oxidation of KnmB1 in the presence of compound (replicates 1, 2, 3) (KnmB1; Time 20): 9.0836 µM and 14.3891 µM and 16.4148 µM
NADPH oxidation of KnmB1 in the presence of compound, average value (KnmB1; Time 20): 13.2958 µM
NADPH oxidation of KnmB1 in the presence of compound (replicates 1, 2, 3) (KnmB1; Time 30): 13.7942 µM and 22.5402 µM and 24.0193 µM
NADPH oxidation of KnmB1 in the presence of compound, average value (KnmB1; Time 30): 20.1179 µM
NADPH oxidation of KnmB1 in the presence of compound (replicates 1, 2, 3) (KnmB1; Time 40): 17.5724 µM and 28.7299 µM and 26.9936 µM
NADPH oxidation of KnmB1 in the presence of compound, average value (KnmB1; Time 40): 24.4319 µM
NADPH oxidation of KnmB1 in the presence of compound (replicates 1, 2, 3) (KnmB1; Time 60): 24.1801 µM and 36.1576 µM and 36.4791 µM
NADPH oxidation of KnmB1 in the presence of compound, average value (KnmB1; Time 60): 32.2722 µM
stimulation of the reaction of KnmB2 with NADPH (KnmB2 [2]; 0.15 mM NADPH, 2 μM KnmB2, 0.1 mM compound (Fig. S131i, j)): could dramatically stimulate the reaction of KnmB2 with NADPH
NADPH oxidation, average value (KnmB2 [2]; KnmB2+32, Time 0): 0.0000 µM
NADPH oxidation, average value (KnmB2 [2]; KnmB2+32, Time 1): 36.1736 µM
NADPH oxidation, average value (KnmB2 [2]; KnmB2+32, Time 2): 67.6313 µM
NADPH oxidation, average value (KnmB2 [2]; KnmB2+32, Time 3): 89.9250 µM
NADPH oxidation, average value (KnmB2 [2]; KnmB2+32, Time 4): 104.0193 µM
NADPH oxidation, average value (KnmB2 [2]; KnmB2+32, Time 5): 113.9871 µM
NADPH oxidation, average value (KnmB2 [2]; KnmB2+32, Time 8): 126.0986 µM
NADPH oxidation, average value (KnmB2 [2]; KnmB2+32, Time 10): 129.3140 µM
NADPH oxidation, average value (KnmB2 [2]; KnmB2+32, Time 15): 133.2797 µM
NADPH oxidation, average value (KnmB2 [2]; KnmB2+32, Time 20): 134.8875 µM
NADPH oxidation, average value (KnmB2 [2]; KnmB2+32, Time 30): 135.6377 µM
NADPH oxidation, average value (KnmB2 [2]; KnmB2+32, Time 60): 137.7278 µM

Reference: publication PMC9838390, “Discovery and biosynthesis of karnamicins as angiotensin converting enzyme inhibitors” (Nature Communications, 2023)
